Source: patent US20080039438A1, “1B-Methylcarbapenem Derivative and Process for the Preparation Thereof” (Korea Institute of Science and Technology, priority 2004, published 2008)
In brackets after ≈: the same amount, converted by molar mass. Where two headings read alike, the source gives them in different places.

Columns and labels:
Type in all cases: cell-based
Escherichia coli TEM = experiment: MIC against standard strains (agar dilution); conditions: standard strain Escherichia coli TEM, 37° C., 18 to 20 hours, read-out: Minimum Inhibitory Concentration (MIC)
[1] = test system: Streptococcus pyogenes 308A; experiment: MIC against standard strains (agar dilution); conditions: standard strain Streptococcus pyogenes 308A, 37° C., 18 to 20 hours, read-out: Minimum Inhibitory Concentration (MIC)
[2] = test system: Klebsiella aerogenes 1522E; experiment: MIC against standard strains (agar dilution); conditions: standard strain Klebsiella aerogenes 1522E, 37° C., 18 to 20 hours, read-out: Minimum Inhibitory Concentration (MIC)
[3] = test system: Pseudomonas aeruginosa 1771M; experiment: MIC against standard strains (agar dilution); conditions: read-out: Minimum Inhibitory Concentration (MIC)
Acinetobacter baumannii = experiment: MIC against clinically isolated aerobic Gram-negative strains; conditions: 30 strains
Haemophilus influenzae = experiment: as above; conditions: 24 strains
[4] = test system: Pseudomonas aeruginosa 1771; experiment: MIC against standard strains (agar dilution); conditions: standard strain Pseudomonas aeruginosa 1771, 37° C., 18 to 20 hours, read-out: Minimum Inhibitory Concentration (MIC)
Klebsiella pneumoniae = experiment: MIC against clinically isolated aerobic Gram-negative strains; conditions: 30 strains
Enterococcus faecalis = experiment: MIC against clinically isolated aerobic Gram-positive strains; conditions: 30 strains
Bacteroides spp. = experiment: MIC against clinically isolated anaerobic Gram-negative strains; conditions: 11 strains
Streptococcus pneumoniae = experiment: MIC against clinically isolated aerobic Gram-positive strains; conditions: 22 strains
Clostridium perfringens = experiment: microbe, parasite or virus in culture; conditions: for MIC50 / MIC90: Clostridium perfringens
Providentia sp. = experiment: MIC against clinically isolated aerobic Gram-negative strains; conditions: 13 strains
[5] = test system: Staphylococcus aureus SG511; experiment: MIC against standard strains (agar dilution); conditions: standard strain Staphylococcus aureus SG511, 37° C., 18 to 20 hours, read-out: Minimum Inhibitory Concentration (MIC)
Enterobacter cloacae = experiment: MIC against clinically isolated aerobic Gram-negative strains; conditions: 29 strains
Klebsiella cxytoca 1082E = experiment: MIC against standard strains (agar dilution); conditions: standard strain Klebsiella cxytoca 1082E, 37° C., 18 to 20 hours, read-out: Minimum Inhibitory Concentration (MIC)
Citrobacter freundii = experiment: MIC against clinically isolated aerobic Gram-negative strains; conditions: 14 strains
[6] = test system: Streptococcus faecium MD 8b; experiment: MIC against standard strains (agar dilution); conditions: Enterococcus faecium, MD8B, standard strain Streptococcus faecium MD 8b, 37° C., 18 to 20 hours, read-out: Minimum Inhibitory Concentration (MIC)
[7] = test system: Enterobacter cloacae 1321E; experiment: MIC against standard strains (agar dilution); conditions: standard strain Enterobacter cloacae 1321E, 37° C., 18 to 20 hours, read-out: Minimum Inhibitory Concentration (MIC)
[8] = test system: Pseudomonas aeruginosa 1592E; experiment: MIC against standard strains (agar dilution); conditions: standard strain Pseudomonas aeruginosa 1592E, 37° C., 18 to 20 hours, read-out: Minimum Inhibitory Concentration (MIC)
[9] = test system: Streptococcus pyogenes 77A; experiment: MIC against standard strains (agar dilution); conditions: standard strain Streptococcus pyogenes 77A, 37° C., 18 to 20 hours, read-out: Minimum Inhibitory Concentration (MIC)
Escherichia coli DC 0 = experiment: MIC against standard strains (agar dilution); conditions: DC0, standard strain Escherichia coli DC 0, 37° C., 18 to 20 hours, read-out: Minimum Inhibitory Concentration (MIC)
Escherichia coli DC 2 = experiment: MIC against standard strains (agar dilution)
Bacteroides fragilis = experiment: MIC against clinically isolated anaerobic Gram-negative strains; conditions: 34 strains
[10] = test system: Pseudomonas aeruginosa 9027; experiment: MIC against standard strains (agar dilution); conditions: standard strain Pseudomonas aeruginosa 9027, 37° C., 18 to 20 hours, read-out: Minimum Inhibitory Concentration (MIC)
Escherichia coli = experiment: MIC against clinically isolated aerobic Gram-negative strains; conditions: 30 strains
Morganella morganii = experiment: as above; conditions: 15 strains
Streptococcus pyogenes = experiment: MIC against clinically isolated aerobic Gram-positive strains; conditions: 15 strains
[11] = test system: Bacteroides thetaiotaomicron; experiment: MIC against clinically isolated anaerobic Gram-negative strains
Enterobacter cloacae P99 = experiment: MIC against standard strains (agar dilution); conditions: standard strain Enterobacter cloacae P99, 37° C., 18 to 20 hours, read-out: Minimum Inhibitory Concentration (MIC)
[12] = clinically isolated anaerobic Bacteroides thetaiotaomicron, 15 strains

## C[C@@H](O)[C@H]1C(=O)N2C(C(=O)O)=C(S[C@@H]3CN[C@H](/C=C/c4cc(C(=O)O)no4)C3)[C@H](C)[C@H]12 [Example, (1R,5S,6S,8R,3′S,5′S)-2-{5′-[(E)-2-(3-carboxylic acid or sodium carboxylate-5-isoxazolo)ethenyl]pyrrolidin-3′-ylthio}-6-(1-hydroxyethyl)-1-methylcarbapen-2-em-3-carboxylic acid]
Escherichia coli TEM
  MIC: 0.025 µg/mL
[1]
  MIC: 0.049 µg/mL
[2]
  MIC: 0.049 µg/mL
[3]
  MIC: 0.391 µg/mL
Acinetobacter baumannii
  MIC50: 8 µg/mL
  MIC90: 64 µg/mL
  MIC Range: 2 to 128 µg/mL
Haemophilus influenzae
  MIC50: 0.25 µg/mL
  MIC90: 4 µg/mL
  MIC Range: 0.25 to 8 µg/mL
[4]
  MIC: 0.391 µg/mL
Klebsiella pneumoniae
  MIC50: 0.03 µg/mL
  MIC90: 0.12 µg/mL
  MIC Range: 0.015 to 0.25 µg/mL
Enterococcus faecalis
  MIC50: 8 µg/mL
  MIC90: 32 µg/mL
  MIC Range: 4 to 32 µg/mL
Bacteroides spp.
  MIC50: 1 µg/mL
  MIC90: 1 µg/mL
  MIC Range: 1 to 2 µg/mL
Streptococcus pneumoniae
  MIC50: 0.008 µg/mL
  MIC90: 0.12 µg/mL
  MIC Range: 0.008 to 0.25 µg/mL
Clostridium perfringens
  MIC50: 0.06 µg/mL
  MIC90: 0.12 µg/mL
Providentia sp.
  MIC50: 0.06 µg/mL
  MIC90: 8 µg/mL
  MIC Range: 0.008 to 8 µg/mL
[5]
  MIC: 0.098 µg/mL
Enterobacter cloacae
  MIC50: 0.12 µg/mL
  MIC90: 0.5 µg/mL
  MIC Range: 0.015 to 2 µg/mL
Klebsiella cxytoca 1082E
  MIC: 0.049 µg/mL
Citrobacter freundii
  MIC50: 0.03 µg/mL
  MIC90: 0.12 µg/mL
  MIC Range: 0.015 to 0.25 µg/mL
[6]
  MIC: 12.5 µg/mL
[7]
  MIC: 0.025 µg/mL
[8]
  MIC: 0.195 µg/mL
[9]
  MIC: 0.049 µg/mL
Escherichia coli DC 0
  MIC: 0.025 µg/mL
Escherichia coli DC 2; DC2, standard strain Escherichia coli DC 2, agar, 37° C., 18 to 20 hours, read-out: Minimum Inhibitory Concentration (MIC)
  MIC: 0.025 µg/mL
Bacteroides fragilis
  MIC50: 0.5 µg/mL
  MIC90: 1 µg/mL
  MIC Range: 0.25 to 4 µg/mL
[10]
  MIC: 0.098 µg/mL
Escherichia coli
  MIC50: 0.03 µg/mL
  MIC90: 0.25 µg/mL
  MIC Range: 0.008 to 2 µg/mL
Morganella morganii
  MIC50: 0.03 µg/mL
  MIC90: 0.06 µg/mL
  MIC Range: 0.03 to 0.12 µg/mL
Streptococcus pyogenes
  MIC50: < 0.008 µg/mL
  MIC90: < 0.008 µg/mL
  MIC Range: <0.008 µg/mL
[11]; [12]
  MIC Range: 0.5 to 8 µg/mL
[11]; clinically isolated anaerobic Bacteroides thetaiotaomicron, 15 strains, read-out: MIC50
  MIC50: 1 µg/mL
[11]; clinically isolated anaerobic Bacteroides thetaiotaomicron, 15 strains, read-out: MIC90
  MIC90: 4 µg/mL
Enterobacter cloacae P99
  MIC: 0.098 µg/mL

## C[C@@H](O)[C@H]1C(=O)N2C(C(=O)O)=C(SCCN=CN)C[C@H]12 [IPM, Imipenem]
Escherichia coli TEM
  MIC: 0.098 µg/mL (≈ 0.327 µM)
[1]
  MIC: 0.004 µg/mL (≈ 0.0134 µM)
[2]
  MIC: 0.195 µg/mL (≈ 0.651 µM)
[3]
  MIC: 0.195 µg/mL (≈ 0.651 µM)
Acinetobacter baumannii
  MIC50: 1 µg/mL (≈ 3.34 µM)
  MIC90: 8 µg/mL (≈ 26.7 µM)
  MIC Range: 0.25 to 32 µg/mL
Haemophilus influenzae
  MIC50: 1 µg/mL (≈ 3.34 µM)
  MIC90: 4 µg/mL (≈ 13.4 µM)
  MIC Range: 0.25 to 8 µg/mL
[4]
  MIC: 0.781 µg/mL (≈ 2.61 µM)
Klebsiella pneumoniae
  MIC50: 0.12 µg/mL (≈ 0.401 µM)
  MIC90: 0.5 µg/mL (≈ 1.67 µM)
  MIC Range: 0.06 to 1 µg/mL
Enterococcus faecalis
  MIC50: 1 µg/mL (≈ 3.34 µM)
  MIC90: 4 µg/mL (≈ 13.4 µM)
  MIC Range: 0.5 to 4 µg/mL
Bacteroides spp.
  MIC50: 0.5 µg/mL (≈ 1.67 µM)
  MIC90: 1 µg/mL (≈ 3.34 µM)
  MIC Range: 0.25 to 2 µg/mL
Streptococcus pneumoniae
  MIC50: 0.12 µg/mL (≈ 0.401 µM)
  MIC90: 0.25 µg/mL (≈ 0.835 µM)
  MIC Range: 0.008 to 0.5 µg/mL
Clostridium perfringens
  MIC50: 0.06 µg/mL (≈ 0.2 µM)
  MIC90: 0.12 µg/mL (≈ 0.401 µM)
Clostridium perfringens; clinically isolated anaerobic Clostridium perfringens, 13 strains
  MIC Range: 0.06 to 0.12 µg/mL
Providentia sp.
  MIC50: 2 µg/mL (≈ 6.68 µM)
  MIC90: 2 µg/mL (≈ 6.68 µM)
  MIC Range: 0.25 to 4 µg/mL
[5]
  MIC: 0.013 µg/mL (≈ 0.0434 µM)
Enterobacter cloacae
  MIC50: 0.25 µg/mL (≈ 0.835 µM)
  MIC90: 1 µg/mL (≈ 3.34 µM)
  MIC Range: 0.12 to 1 µg/mL
Klebsiella cxytoca 1082E
  MIC: 0.195 µg/mL (≈ 0.651 µM)
Citrobacter freundii
  MIC50: 0.12 µg/mL (≈ 0.401 µM)
  MIC90: 0.5 µg/mL (≈ 1.67 µM)
  MIC Range: 0.06 to 0.5 µg/mL
[6]
  MIC: 0.781 µg/mL (≈ 2.61 µM)
[7]
  MIC: 0.098 µg/mL (≈ 0.327 µM)
[8]
  MIC: 0.781 µg/mL (≈ 2.61 µM)
[9]
  MIC: < 0.002 µg/mL
Escherichia coli DC 0
  MIC: 0.195 µg/mL (≈ 0.651 µM)
Escherichia coli DC 2; Escherichia coli, DC2, read-out: Minimum Inhibitory Concentration (MIC)
  MIC: 0.195 µg/mL (≈ 0.651 µM)
Bacteroides fragilis
  MIC50: 0.25 µg/mL (≈ 0.835 µM)
  MIC90: 0.5 µg/mL (≈ 1.67 µM)
  MIC Range: 0.06 to 2 µg/mL
[10]
  MIC: 0.391 µg/mL (≈ 1.31 µM)
Escherichia coli
  MIC50: 0.12 µg/mL (≈ 0.401 µM)
  MIC90: 0.5 µg/mL (≈ 1.67 µM)
  MIC Range: 0.06 to 1 µg/mL
Morganella morganii
  MIC50: 1 µg/mL (≈ 3.34 µM)
  MIC90: 2 µg/mL (≈ 6.68 µM)
  MIC Range: 0.5 to 2 µg/mL
Streptococcus pyogenes
  MIC50: < 0.008 µg/mL
  MIC90: < 0.008 µg/mL
  MIC Range: <0.008 µg/mL
[11]; Bacteroides thetaiotaomicron
  MIC50: 0.5 µg/mL (≈ 1.67 µM)
  MIC90: 4 µg/mL (≈ 13.4 µM)
[11]; [12]
  MIC Range: 0.12 to 16 µg/mL
Enterobacter cloacae P99
  MIC: 0.098 µg/mL (≈ 0.327 µM)
